# Data from ChEMBL document CHEMBL1121411, “Convenient synthesis of 10-deazaaminopterin via a pteridine ylide” (J Med Chem, 1980).
# pEC50: −log10 of the molar value.
# Tested on: HEp-2
# Experiment: Tested for cloning suppression test against H.Ep.-2 cells
# Assay type: functional
# Details: Homo sapiens, read-out: ED50 (the source's name)
row,Compound,pEC50
1,Nc1cc(N)c2cc(CCc3ccc(C(=O)NC(CCC(=O)O)C(=O)O)cc3)ccc2c1 (configuration not stated),9.05
2,CN(Cc1cnc2nc(N)nc(N)c2n1)c1ccc(C(=O)N[C@@H](CCC(=O)O)C(=O)O)cc1 [METHOTREXATE],8.62
